Measurements as given in article PMC3652196, “Pharmacometrics of 3-Methoxypterostilbene: A Component of Traditional Chinese Medicinal Plants” (Evidence-based Complementary and Alternative Medicine : eCAM, 2013).

Tests used:
[1] = system: α-glucosidase from Saccharomyces cerevisiae; assay: α-Glucosidase inhibition colorimetric assay (PNPG); type: biochemical; conditions: 0 to 200 μg/mL, n = 6
[2] = humans; cited from earlier work

For `Oc1ccc(/C=C/c2cc(O)cc(O)c2)cc1` [resveratrol], the “α-Glucosidase inhibition (in words)” value [1] is listed as “clear positive concentration-dependent inhibition relationship” and the bioavailability [2] is listed as < 1%.
